Assay results reported in patent publication US6054435A, “6-O-substituted macrolides having antibacterial activity” (priority 1999, dated 2000).
≈ marks a conversion by molar mass, not a printed value.

Tests used:
Test in all cases: in vitro antibacterial activity (MIC), agar dilution
Type in all cases: cell-based
Candida albicans CCH 442 = details: organism code TT; BHI agar, 35-37° C., 20 to 24 hours; unit assumed
Summary of the method: (§1)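 Steps: dilute compound serially into BHI agar (twelve plates); spot inocula diluted 1:100, or 1:10 for slow-growing Streptococcus; incubate; inspect visually. MIC recorded as lowest level with no growth, slight haze or sparse isolated colonies.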

[1] = tested on: Enterococcus faecium ATCC 8043; details: organism code II; BHI agar, 35-37° C., 20 to 24 hours; unit assumed
Summary of the method: as §1

Escherichia coli DC-2 = details: organism code SS; BHI agar, 35-37° C., 20 to 24 hours; unit assumed
Summary of the method: as §1

Escherichia coli JUHL = details: organism code QQ; BHI agar, 35-37° C., 20 to 24 hours; unit assumed
Summary of the method: as §1

Escherichia coli SS = details: organism code RR; BHI agar, 35-37° C., 20 to 24 hours; unit assumed
Summary of the method: as §1

[2] = tested on: Haemophilis Influenzae DILL AMP R; details: organism code WW; BHI agar, 35-37° C., 20 to 24 hours; unit assumed
Summary of the method: as §1

[3] = tested on: Micrococcus luteus ATCC 4698; details: organism code PP; BHI agar, 35-37° C., 20 to 24 hours; unit assumed
Summary of the method: (§2)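 Antibacterial MIC determined by agar dilution in BHI agar with twelve successive concentrations; controls comprised compound-free plates and a same-class reference antibiotic. MIC: lowest concentration giving no growth, slight haze or sparsely isolated colonies.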

[4] = tested on: Micrococcus luteus ATCC 9341; details: organism code OO; BHI agar, 35-37° C., 20 to 24 hours; unit assumed
Summary of the method: as §2

[5] = tested on: Mycobacterium smegmatis ATCC 114; details: organism code UU; BHI agar, 35-37° C., 20 to 24 hours; unit assumed
Summary of the method: as §1

[6] = tested on: Nocardia Asteroides ATCC9970; details: organism code VV; BHI agar, 35-37° C., 20 to 24 hours; unit assumed
Summary of the method: as §1

[7] = tested on: Staphylococcus aureus 1775; details: organism code GG; BHI agar, 35-37° C., 20 to 24 hours; unit assumed
Summary of the method: as §1

[8] = tested on: Staphylococcus aureus A-5278; details: organism code CC; BHI agar, 35-37° C., 20 to 24 hours; unit assumed
Summary of the method: as §1

[9] = tested on: Staphylococcus aureus A5177; details: organism code BB; BHI agar, 35-37° C., 20 to 24 hours; unit assumed
Summary of the method: as §1

[10] = tested on: Staphylococcus aureus ATCC 6538P; details: organism code AA; BHI agar, 35-37° C., 20 to 24 hours; unit assumed
Summary of the method: as §1

[11] = tested on: Staphylococcus aureus CMX 553; details: organism code FF; BHI agar, 35-37° C., 20 to 24 hours; unit assumed
Summary of the method: as §1

[12] = tested on: Staphylococcus aureus CMX 642A; details: organism code DD; BHI agar, 35-37° C., 20 to 24 hours; unit assumed
Summary of the method: as §1

[13] = tested on: Staphylococcus aureus NCTC10649M; details: organism code EE; BHI agar, 35-37° C., 20 to 24 hours; unit assumed
Summary of the method: as §1

[14] = tested on: Staphylococcus epidermidis 3519; details: organism code HH; BHI agar, 35-37° C., 20 to 24 hours; unit assumed
Summary of the method: as §1

[15] = tested on: Streptococcus Pneumonia 5649; details: organism code ZZA; BHI agar, 35-37° C., 20 to 24 hours; unit assumed
Summary of the method: as §1

[16] = tested on: Streptococcus Pneumonia 5979; details: organism code ZZ; BHI agar, 35-37° C., 20 to 24 hours; unit assumed
Summary of the method: as §1

[17] = tested on: Streptococcus Pneumonia ATCC6303; details: organism code XX; BHI agar, 35-37° C., 20 to 24 hours; unit assumed
Summary of the method: as §1

[18] = tested on: Streptococcus Pneumonia GYR 1171; details: organism code YY; BHI agar, 35-37° C., 20 to 24 hours; unit assumed
Summary of the method: as §1

[19] = tested on: Streptococcus agalactiae CMX 508; details: organism code KK; BHI agar, 35-37° C., 20 to 24 hours; unit assumed
Summary of the method: as §1

[20] = tested on: Streptococcus bovis A-5169; details: organism code JJ; BHI agar, 35-37° C., 20 to 24 hours; unit assumed
Summary of the method: as §1

[21] = tested on: Streptococcus pyogenes 930; details: organism code MM; BHI agar, 35-37° C., 20 to 24 hours; unit assumed
Summary of the method: as §1

[22] = tested on: Streptococcus pyogenes EES61; details: organism code LL; BHI agar, 35-37° C., 20 to 24 hours; unit assumed
Summary of the method: as §1

[23] = tested on: Streptococcus pyogenes PIU 2548; details: organism code NN; BHI agar, 35-37° C., 20 to 24 hours; unit assumed
Summary of the method: as §1

With CC[C@H]1OC(=O)[C@H](C)C(=O)[C@H](C)[C@@H](O[C@@H]2O[C@H](C)C[C@H](N(C)C)[C@H]2O)[C@](C)(OCC#Cc2ccc(-c3cccc([N+](=O)[O-])c3)s2)C[C@@H](C)C(=O)[C@H](C)[C@H]2NC(=O)O[C@@]21C [Example 21] the MIC (Candida albicans CCH 442) was greater than 100 µg/mL, the MIC [1] was 0.05 µg/mL (≈ 0.0595 µM) and the MIC (Escherichia coli DC-2) was greater than 100 µg/mL. The MIC (Escherichia coli JUHL) was greater than 100 µg/mL, the MIC (Escherichia coli SS) was 0.2 µg/mL (≈ 0.238 µM) and the MIC [2] was 8 µg/mL (≈ 9.52 µM). It also gave an MIC [3] of 0.05 µg/mL (≈ 0.0595 µM), an MIC [4] of 0.02 µg/mL (≈ 0.0238 µM) and an MIC [5] of 0.2 µg/mL (≈ 0.238 µM). The MIC [6] was 0.2 µg/mL (≈ 0.238 µM), the MIC [7] was 100 µg/mL (≈ 119 µM) and the MIC [8] was greater than 100 µg/mL. The MIC [9] was 0.05 µg/mL (≈ 0.0595 µM), the MIC [10] was 0.1 µg/mL (≈ 0.119 µM) and the MIC [11] was 0.05 µg/mL (≈ 0.0595 µM). It also gave an MIC [12] of 0.05 µg/mL (≈ 0.0595 µM), an MIC [13] of 0.1 µg/mL (≈ 0.119 µM) and an MIC [14] of 0.2 µg/mL (≈ 0.238 µM). For the same compound, the MIC [15] was 0.5 µg/mL (≈ 0.595 µM), the MIC [16] was 2 µg/mL (≈ 2.38 µM) and the MIC [17] was 0.03 µg/mL (≈ 0.0357 µM). It also gave an MIC [18] of 0.03 µg/mL (≈ 0.0357 µM), an MIC [19] of 0.02 µg/mL (≈ 0.0238 µM) and an MIC [20] of 0.02 µg/mL (≈ 0.0238 µM). The MIC [21] was 0.78 µg/mL (≈ 0.929 µM), the MIC [22] was 0.02 µg/mL (≈ 0.0238 µM) and the MIC [23] was 0.2 µg/mL (≈ 0.238 µM).
For CC[C@H]1OC(=O)[C@H](C)C(=O)[C@H](C)[C@@H](O[C@@H]2O[C@H](C)C[C@H](N(C)C)[C@H]2O)[C@](C)(OC/C=C/c2ccc(-c3cnc(N)s3)s2)C[C@@H](C)C(=O)[C@H](C)[C@H]2NC(=O)O[C@@]21C [Example 53], the MIC (Candida albicans CCH 442) was greater than 100 µg/mL, the MIC [1] was 0.05 µg/mL (≈ 0.061 µM) and the MIC (Escherichia coli DC-2) was 25 µg/mL (≈ 30.5 µM). The MIC (Escherichia coli JUHL) was 50 µg/mL (≈ 61 µM), the MIC (Escherichia coli SS) was 0.2 µg/mL (≈ 0.244 µM) and the MIC [2] was 8 µg/mL (≈ 9.77 µM). For the same compound, the MIC [3] was 0.1 µg/mL (≈ 0.122 µM), the MIC [4] was 0.01 µg/mL (≈ 0.0122 µM) and the MIC [5] was 3.1 µg/mL (≈ 3.78 µM). For the same compound, the MIC [6] was 0.1 µg/mL (≈ 0.122 µM), the MIC [7] was greater than 100 µg/mL and the MIC [8] was greater than 100 µg/mL. For the same compound, the MIC [9] was 0.1 µg/mL (≈ 0.122 µM), the MIC [10] was 0.1 µg/mL (≈ 0.122 µM) and the MIC [11] was 0.1 µg/mL (≈ 0.122 µM). For the same compound, the MIC [12] was 0.1 µg/mL (≈ 0.122 µM), the MIC [13] was 0.1 µg/mL (≈ 0.122 µM) and the MIC [14] was 0.1 µg/mL (≈ 0.122 µM). The MIC [15] was 1 µg/mL (≈ 1.22 µM), the MIC [16] was 16 µg/mL (≈ 19.5 µM) and the MIC [17] was 0.03 µg/mL (≈ 0.0366 µM). It also gave an MIC [18] of 0.03 µg/mL (≈ 0.0366 µM), an MIC [19] of 0.01 µg/mL (≈ 0.0122 µM) and an MIC [20] of 0.01 µg/mL (≈ 0.0122 µM). It also gave an MIC [21] of 12.5 µg/mL (≈ 15.3 µM), an MIC [22] of no more than 0.005 µg/mL and an MIC [23] of 0.1 µg/mL (≈ 0.122 µM).
In the case of CC[C@H]1OC(=O)[C@H](C)C(=O)[C@H](C)[C@@H](O[C@@H]2O[C@H](C)C[C@H](N(C)C)[C@H]2O)[C@](C)(OCC#Cc2ccc(-c3cncc(C#N)c3)s2)C[C@@H](C)C(=O)[C@H](C)[C@H]2NC(=O)O[C@@]21C [Example 8], the MIC (Candida albicans CCH 442) is reported as greater than 100 µg/mL, the MIC [1] is reported as 0.02 µg/mL (≈ 0.0244 µM) and the MIC (Escherichia coli DC-2) is reported as greater than 100 µg/mL. For the same compound, the MIC (Escherichia coli JUHL) was 50 µg/mL (≈ 60.9 µM), the MIC (Escherichia coli SS) was 0.2 µg/mL (≈ 0.244 µM) and the MIC [2] was 4 µg/mL (≈ 4.87 µM). For the same compound, the MIC [3] was 0.05 µg/mL (≈ 0.0609 µM), the MIC [4] was no more than 0.005 µg/mL and the MIC [5] was 0.78 µg/mL (≈ 0.95 µM). The MIC [6] was 0.01 µg/mL (≈ 0.0122 µM), the MIC [7] was greater than 100 µg/mL and the MIC [8] was greater than 100 µg/mL. It also gave an MIC [9] of 0.05 µg/mL (≈ 0.0609 µM), an MIC [10] of 0.05 µg/mL (≈ 0.0609 µM) and an MIC [11] of 0.02 µg/mL (≈ 0.0244 µM). The MIC [12] was 0.05 µg/mL (≈ 0.0609 µM), the MIC [13] was 0.02 µg/mL (≈ 0.0244 µM) and the MIC [14] was 0.05 µg/mL (≈ 0.0609 µM). The MIC [15] was no more than 0.004 µg/mL, the MIC [16] was 0.25 µg/mL (≈ 0.305 µM) and the MIC [17] was no more than 0.004 µg/mL. For the same compound, the MIC [18] was no more than 0.004 µg/mL, the MIC [19] was 0.01 µg/mL (≈ 0.0122 µM) and the MIC [20] was no more than 0.005 µg/mL. For the same compound, the MIC [21] was 0.2 µg/mL (≈ 0.244 µM), the MIC [22] was no more than 0.005 µg/mL and the MIC [23] was 0.1 µg/mL (≈ 0.122 µM).
CC[C@H]1OC(=O)[C@H](C)C(=O)[C@H](C)[C@@H](O[C@@H]2O[C@H](C)C[C@H](N(C)C)[C@H]2O)[C@](C)(OCC#Cc2ccc(-c3cccc(C(F)(F)F)c3)s2)C[C@@H](C)C(=O)[C@H](C)[C@H]2NC(=O)O[C@@]21C [Example 19] gave an MIC (Candida albicans CCH 442) greater than 100 µg/mL, an MIC [1] of 0.39 µg/mL (≈ 0.452 µM) and an MIC (Escherichia coli DC-2) greater than 100 µg/mL. The MIC (Escherichia coli JUHL) was greater than 100 µg/mL, the MIC (Escherichia coli SS) was 3.1 µg/mL (≈ 3.59 µM) and the MIC [2] was 4 µg/mL (≈ 4.63 µM). It also gave an MIC [3] of 0.39 µg/mL (≈ 0.452 µM), an MIC [4] of 0.2 µg/mL (≈ 0.232 µM) and an MIC [5] of 0.39 µg/mL (≈ 0.452 µM). For the same compound, the MIC [6] was 0.39 µg/mL (≈ 0.452 µM), the MIC [7] was 12.5 µg/mL (≈ 14.5 µM) and the MIC [8] was 25 µg/mL (≈ 29 µM). The MIC [9] was 0.39 µg/mL (≈ 0.452 µM), the MIC [10] was 0.39 µg/mL (≈ 0.452 µM) and the MIC [11] was 0.39 µg/mL (≈ 0.452 µM). The MIC [12] was 0.39 µg/mL (≈ 0.452 µM), the MIC [13] was 0.39 µg/mL (≈ 0.452 µM) and the MIC [14] was 0.39 µg/mL (≈ 0.452 µM). It also gave an MIC [15] of 1 µg/mL (≈ 1.16 µM), an MIC [16] of 4 µg/mL (≈ 4.63 µM) and an MIC [17] of 0.125 µg/mL (≈ 0.145 µM). It also gave an MIC [18] of 0.125 µg/mL (≈ 0.145 µM), an MIC [19] of 0.05 µg/mL (≈ 0.0579 µM) and an MIC [20] of 0.05 µg/mL (≈ 0.0579 µM). It also gave an MIC [21] of 3.1 µg/mL (≈ 3.59 µM), an MIC [22] of 0.1 µg/mL (≈ 0.116 µM) and an MIC [23] of 0.39 µg/mL (≈ 0.452 µM).
